Experimental data taken from doi:10.1101/2023.09.03.556088, “Protein coopted from a phage restriction system dictates orthogonal cell division plane selection in Staphylococcus aureus” (bioRxiv, 2023).

T1: PcdA (Staphylococcus aureus, UniProt A0A0H2XHA0)
T1 construct: gene SAUSA300_2094; full-length, untagged; His6-SUMO fusion (pTB146, pFRL159) cleaved with Ulp1; expressed in E. coli BL21(DE3)
T1 sequence (A0A0H2XHA0 1-457): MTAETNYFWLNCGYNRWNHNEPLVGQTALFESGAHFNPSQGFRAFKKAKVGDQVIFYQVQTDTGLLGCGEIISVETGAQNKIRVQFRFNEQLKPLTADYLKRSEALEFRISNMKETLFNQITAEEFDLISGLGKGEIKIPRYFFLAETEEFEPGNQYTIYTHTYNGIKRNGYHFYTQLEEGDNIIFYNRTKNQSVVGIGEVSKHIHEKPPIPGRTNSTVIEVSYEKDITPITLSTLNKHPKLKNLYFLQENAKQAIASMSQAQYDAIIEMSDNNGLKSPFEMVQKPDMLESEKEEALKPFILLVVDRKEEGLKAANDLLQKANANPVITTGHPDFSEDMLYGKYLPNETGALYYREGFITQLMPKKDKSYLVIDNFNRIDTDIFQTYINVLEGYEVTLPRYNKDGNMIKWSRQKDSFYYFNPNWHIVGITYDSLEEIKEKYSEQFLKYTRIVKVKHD

B1: FtsZ (purified recombinant untagged S. aureus FtsZ) (natural protein, UniProt P0A031 1-390, looked up)
chain: MLEFEQGFNHLATLKVIGVGGGGNNAVNRMIDHGMNNVEFIAINTDGQALNLSKAESKIQIGEKLTRGLGAGANPEIGKKAAEESREQIEDAIQGADMVFVTSGMGGGTGTGAAPVVAKIAKEMGALTVGVVTRPFSFEGRKRQTQAAAGVEAMKAAVDTLIVIPNDRLLDIVDKSTPMMEAFKEADNVLRQGVQGISDLIAVSGEVNLDFADVKTIMSNQGSALMGIGVSSGENRAVEAAKKAISSPLLETSIVGAQGVLMNITGGESLSLFEAQEAADIVQDAADEDVNMIFGTVINPELQDEIVVTVIATGFDDKPTSHGRKSGSTGFGTSVNTSSNATSKDESFTSNSSNAQATDSVSERTHTTKEDDIPSFIRNREERRSRRTRR
notes: FtsZ, tubulin homolog, Staphylococcus aureus; Polymerised with GMPCPP in the co-sedimentation assay, unpolymerised (no GTP) in the filter retention assay

What was measured:
PcdA = molecular target: T1, PcdA; experiment: inorganic phosphate release (PiColorLock); type: biochemical; settings: 50 mM Tris-HCl pH 8.0, 150 mM KCl, 5 mM MgCl2, 37 °C, 0.25-4 mM NTP, 2.5 μM protein
[1] = molecular target: the molecule itself; experiment: co-sedimentation; with 2 mM GMPCPP; 30 μM FtsZ with or without PcdA (5 μM in the legend, 10 μM in the methods); 20 mM HEPES pH 7.5, 140 mM KCl, 5 mM MgCl2; 10 min at 37 °C, then 30 min at 129,000 × g; supernatant and pellet on SDS-PAGE, Coomassie

Row | Molecule | kcat (PcdA) | binding result [1]
1 | Nc1ncnc2c1ncn2[C@@H]1O[C@H](COP(=O)(O)OP(=O)(O)OP(=O)(O)O)[C@@H](O)[C@H]1O [ATP] | Incubation of increasing concentrations of either ATP or GTP with PcdA produced saturation curves | 
2 | Nc1nc2c(ncn2[C@@H]2O[C@H](COP(=O)(O)OP(=O)(O)OP(=O)(O)O)[C@@H](O)[C@H]2O)c(=O)[nH]1 [GTP] | Incubation of increasing concentrations of either ATP or GTP with PcdA produced saturation curves | 
3 | B1 |  | binds
